Target: T1, Interleukin-1 receptor-associated kinase 4 (Homo sapiens, UniProt Q9NWZ3)
T1 sequence (Q9NWZ3 whole entry): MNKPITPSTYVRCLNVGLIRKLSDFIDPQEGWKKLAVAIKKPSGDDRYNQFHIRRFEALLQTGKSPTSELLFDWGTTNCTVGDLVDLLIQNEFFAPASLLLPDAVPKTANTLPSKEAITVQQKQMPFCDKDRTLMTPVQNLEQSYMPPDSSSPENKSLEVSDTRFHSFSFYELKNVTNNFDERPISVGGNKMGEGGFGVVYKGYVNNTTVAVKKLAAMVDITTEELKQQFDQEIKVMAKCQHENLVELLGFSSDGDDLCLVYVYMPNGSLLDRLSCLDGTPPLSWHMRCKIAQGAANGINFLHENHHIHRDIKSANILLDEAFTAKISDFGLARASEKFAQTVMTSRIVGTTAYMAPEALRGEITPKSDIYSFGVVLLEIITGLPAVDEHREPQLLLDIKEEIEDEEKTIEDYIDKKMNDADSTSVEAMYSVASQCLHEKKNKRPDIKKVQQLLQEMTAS
Assay: IRAK4 ADP-Glo Assay
Protocol: The ADP-Glo reagents were thawed at ambient temperature. The Kinase Detection Reagent was prepared by mixing kinase detection buffer with the lyophilized kinase detection substrate, and set aside.A stock volume of 5 Reaction Kinase Buffer was made with a final concentration of 100 mM MgCl2, 200 mM Tris-HCl, and 0.5 mg/ml of BSA, in distilled H2O with a final pH7.4. A 2 working stock volume of Reaction Kinase Buffer was made containing a final concentration of 100 μM DTT.The components of IRAK4 Enzyme were thawed on ice. Diluted IRAK4 in 1 Kinase Reaction Buffer (diluted from 2 buffer) was prepared at 5.0 ng/μl. […] Then diluted 1:5 in 2 Reaction Buffer in a 96 well plate. 1.0 μl was transferred to a 384 well plate in duplicate. […] 1 μl of 1 mg/ml stock solution of MBP substrate was added NOTE: MBP can be combined with ATP mix with equal volume and then added at 2 μl/well. Final reaction volume was 5 μl.The plate was centrifuged and the reaction mixture was incubated at room temperature for 60 minutes or at 30 C. for 30 minutes.The reaction was terminated and the remaining ATP was depleted by adding 5 μl of ADP-Glo Reagent. The 384-well plate was centrifuged and then the reaction mixture was incubated for another 40 minutes at ambient temperature.

CC(C)Oc1cc2c(OC[C@@H]3CC(F)(F)C(=O)N3)ncc(C#CC3(O)CCN(C(=O)OC(C)(C)C)CC3)c2cc1C(N)=O [US20230391748, Compound I-52]
IC50: 0.0183 µM

CC(C)Oc1cc2c(O[C@@H]3CCCNC3)ncc(C#CC3(O)CCCC3)c2cc1C(N)=O [US20230391748, Compound I-85]
IC50: 0.035 µM

— BindingDB's records for patent US20230391748 (Rigel Pharmaceuticals, 2023)
